Test systems include RPMI-8226; IGROV-1; OVCAR-5; UACC-257; RXF 393; SF-268; SNB-75; HT-29; MDA-MB-435; KM12; HL-60; SF-295; NCI-H23; HCC 2998; Malme-3M; UO-31; SK-MEL-5; HCT-15; HOP-92; EKVX.
Experiment in all cases: growth of human tumour cells (NCI), 48 h

Structures are written as SMILES.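 Interpolation was linear, between the two tested concentrations surrounding the appropriate level; five concentrations were tested over 48 hours in 96-well plates. GI50 marks 50% less growth.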 Activity calls are given as the source filed them. Cut-off read from the data, not from the text of the source: active = GI50 up to about 1.1 µM and inactive = higher.

For `OCC(CCc1ccccc1I)C1=CCC2(CC1)OCCO2` (stereo not given), the GI50 with RPMI-8226 is 53.6 µM (inactive); with IGROV-1, 16.7 µM (inactive); with OVCAR-5, 15.7 µM (inactive); with UACC-257, 21.6 µM (inactive); with RXF 393 it was 14.9 µM (inactive); in the experiment with SF-268, 17.8 µM (inactive). Besides, the GI50 in the experiment with SNB-75 is 19.4 µM (inactive); in the experiment on HT-29, 18.2 µM (inactive); in the experiment with MDA-MB-435, 15.7 µM (inactive); in the experiment with KM12, 16.4 µM (inactive); with HL-60, 3.53 µM (inactive); in the experiment on SF-295, 16.4 µM (inactive). For the same compound, the GI50 is 20.5 µM (inactive) with NCI-H23; 20.4 µM (inactive) in the experiment with HCC 2998; 17.8 µM (inactive) with Malme-3M; 17.8 µM (inactive) with UO-31; 14.6 µM (inactive) in the experiment with SK-MEL-5; 21.9 µM in the experiment with HCT-15. The GI50 was 12.4 µM (inactive) in the experiment with HOP-92 and 21.4 µM (inactive) with EKVX.

As for `COC(=O)c1ccccc1/C=C1\Cc2c(C)c3c(c(C)c2C1=O)CCC3`, the GI50 with RPMI-8226 is > 100 µM (inactive); in the experiment with IGROV-1 it was > 100 µM (inactive); in the experiment on OVCAR-5, > 100 µM (inactive); in the experiment on UACC-257, > 100 µM (inactive); in the experiment on RXF 393 it was > 100 µM (inactive); with SF-268 it was 64.1 µM (inactive). In addition, the GI50 in the experiment with SNB-75 was 63.7 µM (inactive); in the experiment on HT-29, > 100 µM (inactive); in the experiment with MDA-MB-435, > 100 µM (inactive); in the experiment with KM12, > 100 µM (inactive); in the experiment with HL-60, > 100 µM (inactive); with SF-295, > 100 µM (inactive). For the same compound, the GI50 was > 100 µM (inactive) in the experiment with NCI-H23; > 100 µM (inactive) in the experiment on HCC 2998; > 100 µM (inactive) with Malme-3M; > 100 µM (inactive) with UO-31; > 100 µM (inactive) in the experiment with SK-MEL-5; more than 100 µM in the experiment on HCT-15. Also, the GI50 in the experiment with HOP-92 and in the experiment on EKVX was > 100 µM (inactive) each time.

Take `Nc1nnc(-c2ccco2)c(-c2ccco2)n1`: the GI50 in the experiment with RPMI-8226, in the experiment on IGROV-1, with OVCAR-5, in the experiment with UACC-257, in the experiment on RXF 393 and in the experiment with SF-268 was > 100 µM (inactive) in each case. Also, the GI50 with SNB-75 is 86.9 µM (inactive); in the experiment on HT-29, > 100 µM (inactive); with MDA-MB-435, > 100 µM (inactive); with KM12 it was > 100 µM (inactive); in the experiment on HL-60, > 100 µM (inactive); with SF-295, > 100 µM (inactive). Further, the GI50 with NCI-H23 is > 100 µM (inactive); in the experiment on HCC 2998, > 100 µM (inactive); with Malme-3M it was > 100 µM (inactive); in the experiment on UO-31, 49.9 µM (inactive); in the experiment on SK-MEL-5 it was > 100 µM (inactive); in the experiment with HCT-15 it was more than 100 µM. Moreover, the GI50 with HOP-92 and with EKVX was > 100 µM (inactive) in each case.

On to `CC1(C)CCC2(C(=O)OC3OC(CO)C(O)C(O)C3O)CCC3(C)C(=CCC4C5(C)CCC(OC6OC(CO)C(O)C(O)C6O)C(C)(C)C5CCC43C)C2C1` (stereo not given), for which the GI50 was 4.18 µM (inactive) in the experiment on RPMI-8226; 14.1 µM (inactive) in the experiment with IGROV-1; 24.1 µM (inactive) with OVCAR-5; 16.9 µM (inactive) with UACC-257; > 25 µM (inactive) with RXF 393; 6.93 µM (inactive) in the experiment on SF-268. The GI50 with SNB-75 was 11.2 µM (inactive); with HT-29, 9.46 µM (inactive); with MDA-MB-435, 7.16 µM (inactive); with KM12 it was 6.5 µM (inactive); in the experiment on HL-60, 4.41 µM (inactive); with SF-295, 15.2 µM (inactive). In addition, the GI50 in the experiment with NCI-H23 is 11.9 µM (inactive); in the experiment with HCC 2998, 4.01 µM (inactive); in the experiment with Malme-3M, 9.77 µM (inactive); with UO-31, > 25 µM (inactive); in the experiment on SK-MEL-5, 9.57 µM (inactive); in the experiment with HCT-15, more than 25 µM. Also, the GI50 is 7.74 µM (inactive) in the experiment with HOP-92 and > 25 µM (inactive) in the experiment with EKVX.

For the compound `O=C1CCc2ccc(O)c(c2)Oc2ccc(cc2)C(Sc2ccccc2)CCO1` (stereo not given), the GI50 was 13.5 µM (inactive) in the experiment on RPMI-8226; 13.3 µM (inactive) in the experiment on IGROV-1; 17.1 µM (inactive) in the experiment with OVCAR-5; 16 µM (inactive) in the experiment with UACC-257; 17.8 µM (inactive) in the experiment with RXF 393; 15.7 µM (inactive) in the experiment on SF-268. Also, the GI50 with SNB-75 was 6.49 µM (inactive); in the experiment on HT-29, 15.9 µM (inactive); in the experiment on MDA-MB-435, 17.1 µM (inactive); in the experiment on KM12, 15 µM (inactive); in the experiment with HL-60, 17.7 µM (inactive); with SF-295, 17.4 µM (inactive). The GI50 in the experiment with NCI-H23 was 13.1 µM (inactive); with HCC 2998 it was 17.1 µM (inactive); in the experiment with Malme-3M it was 13.9 µM (inactive); in the experiment on UO-31, 14.4 µM (inactive); in the experiment with SK-MEL-5, 12.1 µM (inactive); in the experiment on HCT-15, 13.7 µM. Also, the GI50 with HOP-92 is 10 µM (inactive); with EKVX, 12.5 µM (inactive).

Regarding `O=C(O)CCC(=O)C(=O)O` [ALPHA-KETOGLUTARIC ACID], the GI50 in the experiment with RPMI-8226, in the experiment with IGROV-1, in the experiment on OVCAR-5, in the experiment with UACC-257, in the experiment on RXF 393 and in the experiment with SF-268 was > 100 µM (inactive) in each case. Also, the GI50 in the experiment with SNB-75, in the experiment with HT-29, in the experiment with MDA-MB-435, in the experiment with KM12, in the experiment on HL-60 and in the experiment on SF-295 was > 100 µM (inactive) throughout. Besides, the GI50 in the experiment on NCI-H23 was > 100 µM (inactive); in the experiment with HCC 2998, > 100 µM (inactive); in the experiment with Malme-3M, > 100 µM (inactive); in the experiment on UO-31, > 100 µM (inactive); in the experiment on SK-MEL-5 it was > 100 µM (inactive); with HCT-15 it was more than 100 µM. The GI50 in the experiment with HOP-92 and in the experiment with EKVX was > 100 µM (inactive) in each case.

In the case of `CC[C@]12CCCN3CCc4c(n(c5ccccc45)C(=O)C1)[C@@H]32` [VINBURNINE], the GI50 was 4.56 µM (inactive) with RPMI-8226; 5.85 µM (inactive) with IGROV-1; 34.6 µM (inactive) in the experiment with OVCAR-5; 15.2 µM (inactive) with UACC-257; 15.6 µM (inactive) in the experiment with RXF 393; 11.6 µM (inactive) in the experiment with SF-268. Besides, the GI50 in the experiment on SNB-75 was 13.3 µM (inactive); in the experiment with HT-29, 3.56 µM (inactive); with MDA-MB-435, 1.26 µM (inactive); in the experiment with KM12 it was 4.54 µM (inactive); with HL-60 it was 2.65 µM (inactive); in the experiment on SF-295, 3.58 µM (inactive). Further, the GI50 in the experiment with NCI-H23 was 13.7 µM (inactive); in the experiment with HCC 2998 it was 3.92 µM (inactive); in the experiment with Malme-3M, 4.63 µM (inactive); in the experiment with UO-31, 4.75 µM (inactive); in the experiment with SK-MEL-5 it was 5.05 µM (inactive); with HCT-15, 4.15 µM. In addition, the GI50 with HOP-92 was > 80.9 µM (inactive); in the experiment on EKVX, 46.9 µM (inactive).
